Assay results as given in US20130323314A1, “Novel Nanoparticles of Lactoferrin Useful for Preparing a Pharmaceutical Composition Facilitating Easy Delivery of the Drug and a Process for Preparing the Same” (UNIVERSITY OF HYDERABAD, priority 2011, published 2013).
Counter-ions that a name gives are not always drawn. Like-named read-outs stand apart in the source and are kept apart here. Marks after values point to notes of the source that are not given here.

Columns and labels:
heart = details: rat, in vivo
[1] = Pharmacokinetics and tissue distribution after oral administration; details: rat
[2] = Pharmacokinetics and tissue distribution after subcutaneous administration; details: rat
in vivo [3] = details: rat, sc
[4] = Pharmacokinetics and tissue distribution after intravenous administration; details: rat
[5] = Pharmacokinetics and tissue distribution after intramuscular administration; details: rat
in vivo [6] = details: rat, po
in vivo [7] = details: rat, im
in vivo [8] = details: rat, iv

With COc1cccc2c1C(=O)c1c(O)c3c(c(O)c1C2=O)C[C@@](O)(C(=O)CO)C[C@@H]3O[C@H]1C[C@H](N)[C@H](O)[C@H](C)O1 [Doxo, Doxorubicin hydrochloride] as the compound, how does the “toxicity to heart (safety analysis)” value (heart) read?
The value was “cardiotoxic”.

And the “toxicity to heart (safety analysis)” value (heart; iv)?
The value was “cardiotoxic”.

And the “toxicity to heart (safety analysis)” value (heart; po)?
Its value is “cardiotoxic”.

What about the “toxicity to heart (safety analysis)” value (heart; sc) of the same compound?
The value was “cardiotoxic”.

What about the AUC ([1]; Blood) of the same compound?
The AUC was 105.24 (h) * (μg/μL).

What about the AUMC ([1]; Blood) of the same compound?
Its AUMC is 1227.63 (h)^2 * (μg/μL).

And the Cmax ([1]; Blood)?
Its Cmax is 8250 µg/mL.

And the t½ ([1]; Blood)?
The t½ was 3.741 h.

What about the AUC ([1]; Heart) of the same compound?
Its AUC is 248.048 (h) * (μg/g).

And the AUMC ([1]; Heart)?
Its AUMC is 3211.86 (h)^2 * (μg/g).

What about the MRT last ([1]; Heart) of the same compound?
The MRT last was 8.9708 h.

What about the Tmax ([1]; Heart) of the same compound?
The Tmax was 16 h.

And the t½ ([1]; Heart)?
The t½ was 7.533 h.

What about the AUC ([1]; Kidney) of the same compound?
The AUC was 362.639 (h) * (μg/g).

What about the AUMC ([1]; Kidney) of the same compound?
Its AUMC is 4321.31 (h)^2 * (μg/g).

And the t½ ([1]; Kidney)?
Its t½ is 6.47 h.

And the AUC ([1]; Liver)?
The AUC was 207.816 (h) * (μg/g).

And the AUMC ([1]; Liver)?
The AUMC was 2379.51 (h)^2 * (μg/g).

What about the MRT last ([1]; Liver) of the same compound?
Its MRT last is 7.428 h.

And the t½ ([1]; Liver)?
Its t½ is 6.099 h.

And the AUC ([1]; Spleen)?
The AUC was 190.928 (h) * (μg/g).

What about the AUMC ([1]; Spleen) of the same compound?
The AUMC was 2616.55 (h)^2 * (μg/g).

What about the MRT last ([1]; Spleen) of the same compound?
Its MRT last is 9.2978 h.

What about the t½ ([1]; Spleen) of the same compound?
The t½ was 5.894 h.

And the AUC ([2]; Blood)?
The AUC was 167.94 (h) * (μg/μL).

What about the AUMC ([2]; Blood) of the same compound?
The AUMC was 1745.8 (h)^2 * (μg/μL).

What about the Cmax ([2]; Blood) of the same compound?
The Cmax was 12855 µg/mL.

And the MRT last ([2]; Blood)?
The MRT last was 10.394 h.

And the t½ ([2]; Blood)?
Its t½ is 7.0001 h.

What about the AUC ([2]; Heart) of the same compound?
The AUC was 467.46 (h) * (μg/μL).

And the AUMC ([2]; Heart)?
The AUMC was 13515 (h)^2 * (μg/μL).

And the Cmax ([2]; Heart)?
The Cmax was 18198 µg/mL.

And the MRT last ([2]; Heart)?
Its MRT last is 28.912 h.

What about the t½ ([2]; Heart) of the same compound?
Its t½ is 18.662 h.

And the AUC ([2]; Kidney)?
Its AUC is 2249.1 (h) * (μg/g).

And the AUMC ([2]; Kidney)?
The AUMC was 19205 (h)^2 * (μg/g).

And the Cmax ([2]; Kidney)?
Its Cmax is 200.93 h.

And the MRT last ([2]; Kidney)?
Its MRT last is 8.5383 h.

And the t½ ([2]; Kidney)?
Its t½ is 3.888 h.

And the AUC ([2]; Liver)?
The AUC was 1025 (h) * (μg/μL).

And the AUMC ([2]; Liver)?
Its AUMC is 10140 (h)^2 * (μg/μL).

And the Cmax ([2]; Liver)?
Its Cmax is 71123 µg/mL.

And the MRT last ([2]; Liver)?
The MRT last was 9.8923 h.

And the t½ ([2]; Liver)?
Its t½ is 5.9991 h.

What about the AUC ([2]; Spleen) of the same compound?
The AUC was 553.3 (h) * (μg/g).

And the AUMC ([2]; Spleen)?
Its AUMC is 7927.3 (h)^2 * (μg/g).

What about the Cmax ([2]; Spleen) of the same compound?
The Cmax was 34.747 h.

And the MRT last ([2]; Spleen)?
Its MRT last is 14.327 h.

What about the t½ ([2]; Spleen) of the same compound?
Its t½ is 5.3088 h.

And the Tmax (in vivo [3])?
The Tmax was 8 h.

What about the Cmax ([4]; Blood) of the same compound?
Its Cmax is 22286.7 µg/mL.

And the t½ ([4]; Heart)?
The t½ was 4.444 h.

What about the t½ ([4]; Kidney) of the same compound?
The t½ was 2.63 h.

What about the t½ ([4]; Liver) of the same compound?
Its t½ is 3.432 h.

And the t½ ([4]; Spleen)?
Its t½ is 3.833 h.

And the AUC ([5]; Blood)?
The AUC was 185.4 (h) * (μg/μL).

And the AUMC ([5]; Blood)?
Its AUMC is 1581.8 (h)^2 * (μg/μL).

And the Cmax ([5]; Blood)?
Its Cmax is 11032 µg/mL.

What about the MRT last ([5]; Blood) of the same compound?
Its MRT last is 8.5317 h.

What about the t½ ([5]; Blood) of the same compound?
Its t½ is 4.466 h.

And the AUC ([5]; Heart)?
Its AUC is 510.54 (h) * (μg/g).

And the AUMC ([5]; Heart)?
Its AUMC is 12046 (h)^2 * (μg/g).

And the MRT last ([5]; Heart)?
Its MRT last is 23.595 h.

And the t½ ([5]; Heart)?
The t½ was 13.27 h.

And the AUC ([5]; Kidney)?
Its AUC is 2580.5 (h) * (μg/g).

What about the AUMC ([5]; Kidney) of the same compound?
Its AUMC is 26548 (h)^2 * (μg/g).

What about the MRT last ([5]; Kidney) of the same compound?
The MRT last was 10.288 h.

And the t½ ([5]; Kidney)?
Its t½ is 2.0438 h.

What about the AUC ([5]; Liver) of the same compound?
Its AUC is 751.01 (h) * (μg/g).

What about the AUMC ([5]; Liver) of the same compound?
Its AUMC is 10278 (h)^2 * (μg/g).

What about the MRT last ([5]; Liver) of the same compound?
Its MRT last is 13.685 h.

What about the t½ ([5]; Liver) of the same compound?
The t½ was 4.9231 h.

And the AUC ([5]; Spleen)?
Its AUC is 899.9 (h) * (μg/g).

What about the AUMC ([5]; Spleen) of the same compound?
The AUMC was 19234 (h)^2 * (μg/g).

And the MRT last ([5]; Spleen)?
Its MRT last is 21.374 h.

And the t½ ([5]; Spleen)?
Its t½ is 13.602 h.

What about the Cmax (in vivo [6]; heart) of the same compound?
The Cmax was 17200 ng/g.

What about the MRT last (in vivo [6]; in vivo) of the same compound?
The MRT last was 8.21 h.

And the Tmax (in vivo [6]; in vivo)?
The Tmax was 8 h.

And the Cmax (in vivo [6]; kidney)?
Its Cmax is 32900 ng/g.

What about the Cmax (in vivo [6]; liver) of the same compound?
The Cmax was 17400 ng/g.

What about the Cmax (in vivo [6]; spleen) of the same compound?
Its Cmax is 11100 ng/g.

What about the Tmax (in vivo [7]) of the same compound?
Its Tmax is 8 h.

What about the Tmax (in vivo [8]) of the same compound?
The Tmax was 8 h.

And the half-life (in vivo [8])?
Its half-life is 2.74 h.
